In data set [1] the test system is Streptomyces fradiae E2724.1. Nature of the data set: Antibiotic sensitivity, sensitivity discs on seeded agar plates. Note: key: -: resistance (no zones of inhibition); +: sensitivity (zones of inhibition); trace of sensitivity. The following applies: discs: chloramphenicol, cephaloridine, tetracycline, vancomycin 30 μg, erythromycin 15 μg, lincomycin 2 μg, polymyxin B 300 units, streptomycin 10 μg. The data set is classed as cell-based. From the text:
(§1) ^a Determined by using sensitivity discs padded onto seededagar

For data set [2], the system named is Streptomyces fradiae ATCC 31664. The description is as above. Format: cell-based. The following applies: discs: chloramphenicol, cephaloridine, tetracycline, vancomycin 30 μg, erythromycin 15 μg, lincomycin 2 μg, polymyxin B 300 units, streptomycin 10 μg. Note: key: -: resistance (no zones of inhibition); +: sensitivity (zones of inhibition); trace of sensitivity.
Source text: as §1

Data set [3] has as its system Staphylococcus aureus 3055. Description: Experimental infection in mice, ED50. The data set is classed as in vivo. The conditions noted are these: sc, subcutaneous, two doses, bacterial challenge (X LD50) = 139, read-out: Subcutaneous ED50 (effective dose to protect 50% of the test animals). Here is the method: (§2) The DOMM compounds have shown in vivo antimicrobial activity against experimental bacterial infections. When two doses of test compound were administered to mice in experimental infections, the activity observed was measured as an ED50 value [effective dose in mg/kg to protect 50% of the test animals: see Warren Wick, et al., J. Bacteriol. 81, 233-235 (1961)].

Data set [4] has as its system Streptococcus pyogenes C203. Description: Experimental infection in mice, ED50. Format: in vivo. The following applies: sc, subcutaneous, two doses, bacterial challenge (X LD50) = 133, read-out: Subcutaneous ED50 (effective dose to protect 50% of the test animals). The procedure:
as §2

Data set [5] deals with Streptococcus pneumoniae Park I. Nature of the data set: Experimental infection in mice, ED50. The data set is classed as in vivo. The following applies: sc, subcutaneous, two doses, bacterial challenge (X LD50) = 41.2, read-out: Subcutaneous ED50 (effective dose to protect 50% of the test animals). The procedure: as §2
Another data set can be described thus: Solubility. Format: physicochemical.
The subject of data set [6] is pathogenic bacteria, especially gram-positive bacteria and Mycoplasma species. Nature of the data set: Inhibition of growth of pathogenic organisms (general statement). The data set is classed as cell-based. From the text:
(§3) Table 8 summarizes the minimal inhibitory concentrations (MIC), as measured by standard agar-dilution assays, at which DOMM (free base) inhibits certain bacteria.

The nature of data set [7]: Electrometric titration (pKa). The data set is classed as physicochemical. The conditions noted are these: 66% aqueous dimethylformamide. From the text:
Electrometric titration of DOMM in 66% aqueous dimethylformamide indicates the presence of a titratable group with a pKa value of about 7.14.

In the next data set the test system is Mycoplasma hyorhinis. Nature of the data set: Standard agar-dilution MIC assay. Format: cell-based. The following applies: DOMM free base.
Source text: as §3

The next data set concerns Mycoplasma gallisepticum. Nature of the data set: Standard agar-dilution MIC assay. The following applies: Mycoplasmoides gallisepticum, DOMM free base. Format: cell-based.
Source text: as §3

The test system of data set [8] is Streptococcus sp. (Group D) 282. Description: Standard agar-dilution MIC assay. The data set is classed as cell-based. The following applies: DOMM free base.
Source text: as §3

A further data set concerns Pasteurella hemolytica. Description: Standard agar-dilution MIC assay. The data set is classed as cell-based. The conditions noted are these: DOMM free base.
Source text: as §3

Another data set has as its system Mycoplasma hyopneumoniae. Description: Standard agar-dilution MIC assay. Format: cell-based. The following applies: Mesomycoplasma hyopneumoniae, DOMM free base.
Source text: as §3

Data set [9] deals with Streptococcus pyogenes C203. Description: Standard agar-dilution MIC assay. The data set is classed as cell-based. The following applies: DOMM free base.
Source text: as §3

A further data set deals with Pasteurella multocida. Nature of the data set: Standard agar-dilution MIC assay. The following applies: DOMM free base. Format: cell-based.
Source text: as §3

Data set [10] concerns Streptococcus pneumoniae Park I. Nature of the data set: Standard agar-dilution MIC assay. The data set is classed as cell-based. The conditions noted are these: DOMM free base.
Source text: as §3

This note sets out measurements from US4486584A, “Demethylmacrocin compounds and derivatives thereof” (Eli Lilly and Company, priority 1982, dated 1984).

≈ marks a conversion by molar mass, not a printed value.

For the compound `O=C(Cc1cccs1)N[C@@H]1C(=O)N2C(C(=O)[O-])=C(C[n+]3ccccc3)CS[C@H]12` [Cephaloridine], the Antibiotic sensitivity entry in data set [1] and in [2] was “+” each time.

`O=C(N[C@H](CO)[C@H](O)c1ccc([N+](=O)[O-])cc1)C(Cl)Cl` [Chloramphenicol]: the Antibiotic sensitivity result in [1] and in [2] was “+” each time.

By ED50 is commonly meant the dose that gives a 50% effect, or the effect in half of the subjects. As a reminder, the MIC is the lowest concentration found to suppress growth. In the case of `CCC1OC(=O)CC(O)C(C)C(OC2OC(C)C(OC3CC(C)(O)C(O)C(C)O3)C(N(C)C)C2O)C(CC=O)CC(C)C(=O)C=CC(C)=CC1COC1OC(C)C(O)C(O)C1O` (centres unmarked) [DOMM, 2'"-O-demethylmacrocin], the ED50 in [3] came to 3.8 mg/kg; in data set [4] it was 1.1 mg/kg; in data set [5], 37.5 mg/kg. In “Solubility” (acetone, methanol, ethanol, chloroform, dimethylformamide and dimethyl sulfoxide), the “solubility in most polar organic solvents” value is “soluble”. Besides, the solubility in water result in the data set “Solubility” (water) is recorded as “soluble”. Besides, the “growth inhibition / antibacterial activity (in words)” value in data set [6] is “especially active against grampositive microorganisms and Mycoplasma species”. Besides, the pKa value result in data set [7] was “about 7.14”. Further, the MIC against Mycoplasma hyorhinis was 3.12 µg/mL (≈ 3.51 µM); in the data set on Mycoplasma gallisepticum, 0.78 µg/mL (≈ 0.878 µM); in data set [8], 4 µg/mL (≈ 4.5 µM); against Pasteurella hemolytica, 50 µg/mL (≈ 56.3 µM); with Mycoplasma hyopneumoniae, 0.78 µg/mL (≈ 0.878 µM); in data set [9] it was 0.25 µg/mL (≈ 0.282 µM). The figures for the MIC (with Pasteurella multocida; in [10]) were 12.5 µg/mL (≈ 14.1 µM) and 0.25 µg/mL (≈ 0.282 µM), respectively.

In the case of `CCC[C@@H]1C[C@@H](C(=O)N[C@@H]([C@H]2O[C@H](SC)[C@H](O)[C@@H](O)[C@H]2O)[C@@H](C)O)N(C)C1` [Lincomycin], the Antibiotic sensitivity entry in data set [1] and in data set [2] was “-” throughout.

Consider `[H]/N=C(/N)N[C@H]1[C@H](O)[C@@H](O)[C@H](O[C@@H]2O[C@@H](C)[C@](O)(C=O)[C@H]2O[C@@H]2O[C@@H](CO)[C@H](O)[C@@H](O)[C@@H]2NC)[C@@H](N/C(N)=N\[H])[C@@H]1O` [Streptomycin], for which the Antibiotic sensitivity result in data set [1] and in data set [2] was “+” throughout.

`CN(C)C1C(=O)C(C(N)=O)=C(O)C2(O)C(=O)C3=C(O)c4c(O)cccc4C(C)(O)C3CC12` (centres unmarked) [Tetracycline]: the Antibiotic sensitivity entry in data set [1] and in data set [2] was “+” each time.

On to `CN[C@H](CC(C)C)C(=O)N[C@H]1C(=O)N[C@@H](CC(N)=O)C(=O)N[C@H]2C(=O)N[C@H]3C(=O)N[C@H](C(=O)N[C@H](C(=O)O)c4cc(O)cc(O)c4-c4cc3ccc4O)[C@H](O)c3ccc(c(Cl)c3)Oc3cc2cc(c3O[C@@H]2O[C@H](CO)[C@@H](O)[C@H](O)[C@H]2O[C@H]2C[C@](C)(N)[C@H](O)[C@H](C)O2)Oc2ccc(cc2Cl)[C@H]1O` [Vancomycin], for which the Antibiotic sensitivity entry in data set [1] and in [2] was “+” throughout.

As for `CCC1OC(=O)CC(O)C(C)C(OC2OC(C)C(OC3CC(C)(O)C(O)C(C)O3)C(N(C)C)C2O)C(CCO)CC(C)C(=O)C=CC(C)=CC1COC1OC(C)C(O)C(O)C1O` (centres unmarked) [dihydro-DOMM, 20-dihydro-2'"-O-demethylmacrocin], in data set [6], the “growth inhibition / antibacterial activity (in words)” value was “especially active against grampositive microorganisms and Mycoplasma species”.

On to Polymyxin B, for which the Antibiotic sensitivity entry in [2] is “+”.
